Test results published in patent US8303989B2, “Compositions and methods for increasing the oral absorption of antimicrobials” (International Health Management Associates, Inc., priority 2000, dated 2012).
Values belong to the compound of their own block, whether it stands above or below them.

Legend:
[1] = Plasma ceftriaxone pharmacokinetics after intravenous administration to rats; assay type: in vivo, rat; settings: i.v. 20 mg CTX/kg, no capmul
Method: These rats were anesthetized with 5.0 mg/100 g of pentobarbital by intraperitoneal injection. […] Blood samples were collected through the jugular vein catheter at predetermined time intervals.
For comparison purposes, about 20 mg/kg of CTX was administered (i.v.) to four rats.

[2] = in vivo; settings: male, Sprague-Dawley, rat, plasma, other: intraduodenal (i.d.)
Method: (§1) At specific time intervals, 0.6 ml of blood was taken from each rat and centrifuged. About 0.2 ml of the blood plasma was then analyzed for CTX by HPLC.
(§2) To determine absorption from the intestine, male Sprague Dawley rats weighing 250-300 g with free access to water were fasted for about 18 hours prior to the experiment. These rats were anesthetized and maintained with Ketamine/Xlazine ((60 mg/kg)/(80 mg/kg)) by intraperitoneal injection. The small intestine was exposed by a midline abdominal incision. A small incision was made in the stomach to insert a polyethylene tube (i.d. 0.76 mm, o.d. 1.22 mm, Clay Adams) toward the duodenum, which was closed at the exposed end by a stopcock to prevent drainage of drug solution from the duodenum. Ceftriaxone and oral formulations of CTX were dissolved in distilled water to achieve a final concentration of 40 mg CTX eq./kg and injected into the duodenum using the tube. Then 0.2 ml mono- and diglyceride mixture (Capmul) was coadministered into the duodenum using the intraduodenal tube. Blood samples were taken with a heparinized syringe through the jugular vein catheter at predetermined intervals.
(§3) The concentration of ceftriaxone in the plasma was determined by HPLC. Blood samples were centrifuged for 5 min at 5,000 rpm and 0.2 ml of plasma was taken into the microtube. 0.2 ml plasma was diluted by 0.2 ml of distilled water, and then 0.8 ml of acetonitrile was added for protein removal. The resulting suspensions were centrifuged for 10 min at 12,000 rpm and 50 μl of the clear supernatant was used for HPLC analysis. […] Percent bioavailability was calculated as follows: % BA=(AUC i.d./AUC i.v.)×(Dose i.v./Dose i.d.)×100
(§4) As a control, about 40 mg/kg of CTX was i.d. co-administered with 0.2 ml of capmul to four rats. […] At specific time intervals, 0.6 ml of blood was taken from each rat and centrifuged. About 0.2 ml of the blood plasma was then analyzed for CTX by HPLC.

[3] = Plasma ceftriaxone (CTX) pharmacokinetics after intraduodenal (i.d.) administration to rats; settings: for BA00 / BA0-4 hr: i.d. 40 mg CTX eq/kg with capmul chase vs i.v. 20 mg CTX/kg
Method: as §1, §2, §3, §4

[4] = Plasma concentration of meropenem in rats after intraduodenal administration; assay type: in vivo, rat; settings: control: meropenem reconstituted per manufacturer, ID catheter, saline flush, no Capmul
Method: Meropenem was infused as a solution through an intraduodenal catheter followed by 0.2 ml. Capmul chase and a saline flush. The carrier formulation was meropenem in calcium-carrageenen to a final concentration of approximately 55% meropenem by weight. Two rats were dosed through a duodenum catheter and plasma samples were collected through 4 hours post dosage. For comparison purposes, a control group received meropenem reconstituted according to the manufacturers instructions, and infused as a solution through ID catheter followed by a saline flush.
Two fasted rats were dosed through a duodenal catheter and plasma samples were collected through 4 hours post dosage. […] A third rat expired prior to dosage, possibly due to anesthesia required for surgery. Rat #1 expired at 4 hours, possibly due to the effects of prolonged anesthesia and blood collection.

[5] = Table 5, rats, i.d. 40 mg CTX eq/kg, 0.2 ml capmul chase
[6] = Table 6, rats, i.d. 40 mg CTX eq/kg, 0.2 ml capmul chase

- AUC00 ([1]; Table 5, rats): 188.0 ± 6.4 μghr/ml
- AUC00 ([1]; Table 6, rats): 188.0 ± 6.4 μghr/ml
- concentration at 30 min ([2]; 40 mg CTX eq./kg): 10000 ng/mL
- concentration at 60 min ([2]; 40 mg CTX eq./kg): 11000 ng/mL
- concentration at 90 min ([2]; 40 mg CTX eq./kg): 9000 ng/mL
- concentration at 120 min ([2]; 40 mg CTX eq./kg): 7000 ng/mL
- concentration at 180 min ([2]; 40 mg CTX eq./kg): 6000 ng/mL
- concentration at 240 min ([2]; 40 mg CTX eq./kg): 5000 ng/mL
- Cmax ([2]; 40 mg CTX eq/kg): 17200 ng/mL
- Tmax ([2]; 40 mg CTX eq/kg): 1 h
- BA00 ([3]; Table 5, rats): 13.9%
- BA0-4 hr ([3]; Table 5, rats): 9.4%
- AUC00 [3, 5]: 52.3 ± 32.4 μghr/ml
- AUG0-4 hr [3, 5]: 31.7 ± 12.4 μghr/ml
- BA00 ([3]; Table 6, rats): 13.9%
- BA0-4 hr ([3]; Table 6, rats): 9.4%
- AUC00 [3, 6]: 52.3 ± 32.4 μghr/ml
- AUC0-4 hr [3, 6]: 31.7 ± 12.4 μghr/ml
- Cmax [3, 6]: 17200 ng/mL
SMILES: CO/N=C(\C(=O)N[C@@H]1C(=O)N2C(C(=O)O)=C(CSc3nc(=O)c(O)nn3C)CS[C@H]12)c1csc(N)n1 [CTX, ceftriaxone]

- absorption [4]: not absorbed
- blood concentrations [4]: undetectable
SMILES: C[C@@H](O)[C@H]1C(=O)N2C(C(=O)O)=C(S[C@@H]3CN[C@H](C(=O)N(C)C)C3)[C@H](C)[C@H]12 [meropenem]
